Reference: the NIST ThermoML archive (doi:10.1021/acs.jced.6b00158)
Numbers after ± are expanded uncertainties.

Assay: xn = mol fraction of the nth substance listed
Conditions: 100 kPa, Liquid; for viscosity: Falling or rolling sphere viscometry; for mass density: Vibrating tube method

NC1CCCCC1 [cyclohexylamine] + CC(C)CO
Conditions	mass density, 293.15 K [kg/m3]	mass density, 298.15 K [kg/m3]	viscosity, 293.15 K [mPa·s]	viscosity, 298.15 K [mPa·s]	viscosity, 303.15 K [mPa·s]
x2 = 0	866.85 ± 2	862.31 ± 2	2.134 ± 0.063	1.944 ± 0.062	1.786 ± 0.062
x2 = 0.06096	865.7 ± 2	861.18 ± 2	2.408 ± 0.064	2.146 ± 0.063	1.948 ± 0.062
x2 = 0.1205	865.02 ± 2	860.59 ± 2	2.575 ± 0.064	2.279 ± 0.063	2.055 ± 0.063
x2 = 0.2357	861.79 ± 2	857.37 ± 2	2.838 ± 0.065	2.474 ± 0.064	2.204 ± 0.063
x2 = 0.3458	856.98 ± 2	852.62 ± 2	3.048 ± 0.066	2.644 ± 0.064	2.334 ± 0.063
x2 = 0.4513	850.89 ± 2	846.55 ± 2	3.246 ± 0.066	2.805 ± 0.065	2.454 ± 0.064
x2 = 0.5523	847.01 ± 2	842.76 ± 2	3.403 ± 0.067	2.937 ± 0.065	2.558 ± 0.064
x2 = 0.6492	839.36 ± 2	835.13 ± 2	3.522 ± 0.067	3.037 ± 0.066	2.626 ± 0.064
x2 = 0.7421	830.79 ± 2	826.7 ± 2	3.534 ± 0.067	3.046 ± 0.066	2.629 ± 0.064
x2 = 0.8315	820.81 ± 2	816.78 ± 2	3.606 ± 0.068	3.088 ± 0.066	2.646 ± 0.064
x2 = 0.9174	814.12 ± 2	810.19 ± 2	3.668 ± 0.068	3.13 ± 0.066	2.676 ± 0.064
